In patent publication US7049396B2, “Synthetic peptides that inhibit leukocyte superoxide anion production and/or attract leukocytes” (priority 1995, dated 2006):
Converted amounts (≈) assume the structure as drawn. Read-outs that look alike come from different tables or passages of the source. Where a SMILES comes first, the peptide text is derived from it.

How the values were obtained:
[1] = molecular target: T1, cell-free NADPH oxidase (human neutrophil cytosol and membranes) (Homo sapiens, UniProt P14598); assay: Cell-free O2- production assay; type: biochemical
T1 construct: 10^6 cell equivalents of human neutrophil cytosol; from tissue; host or cells: human peripheral blood neutrophils (cytosol and deoxycholate-solubilized membranes)
T1 sequence (P14598 1-390): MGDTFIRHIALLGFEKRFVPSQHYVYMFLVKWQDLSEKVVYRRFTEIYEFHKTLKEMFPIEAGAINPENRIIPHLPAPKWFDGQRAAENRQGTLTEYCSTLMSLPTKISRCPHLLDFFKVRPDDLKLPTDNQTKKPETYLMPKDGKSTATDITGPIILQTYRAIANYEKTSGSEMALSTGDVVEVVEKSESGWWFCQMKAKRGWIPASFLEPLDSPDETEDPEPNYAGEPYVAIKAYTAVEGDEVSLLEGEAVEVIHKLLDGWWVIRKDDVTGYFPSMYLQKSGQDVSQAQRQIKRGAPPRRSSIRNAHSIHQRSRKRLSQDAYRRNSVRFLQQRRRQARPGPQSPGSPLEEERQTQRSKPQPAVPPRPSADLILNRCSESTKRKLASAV
Protocol: Reactions (100 μl) contained 10^6 cell equivalents of human neutrophil cytosol and 5×10^5 cell equivalents of deoxycholate-solubilized membranes prepared from human peripheral blood neutrophils. […] Control reactions contained 5 μg of superoxide dismutase. Superoxide anion generation was calculated based on superoxide dismutase-inhibitable changes in cytochrome c absorbance observed at 551 nm. The reactions were followed for 20 min. after addition of arachidonic acid, with absorbance readings taken at 1-min. intervals. […] Determinations were based on reactions performed in duplicate. • (ii) Binding assays. Neutrophils were disrupted by sonication, and unbroken cells, debris, and granules were removed by centrifuigation (13,000×g for 60 min.). Cytosol fractions were prepared by centrifugation (100,000 g for 45 min.) of the supernatants to remove residual membranes. Cytosolic proteins (15 μg in reducing buffer) were separated on a 7.5% SDS PAGE gel, transferred to PVDF membranes, and probed with biotinylated PR-39 (0.3 μM) for 2 hr. Binding between PR-39 and cytosolic proteins were visualized by a chemiluminescent streptavidin alkaline phosphatase system using an Epson scanner (Torrance, Calif.) and the NIH Image program. PR-39 was labeled with biotin hydrazide at the carboxy-terminus (Pierce Chemical Co., Rockford, Ill.) and purified by gel filtration chromatography.

E. coli, ATCC 25922 = assay: Gel-overlay antibacterial assay; type: cell-based, Escherichia coli; conditions: 10 μg peptide per lane, AU-PAGE gel overlaid with E. coli, 18 hr
[2] = tested on: S. typhimurium, KSU isolate 7; assay: Lawn-spotting antibacterial assay (S. typhimurium); type: cell-based, Salmonella typhimurium; conditions: 5 μl spotted, inactive segments up to 1 mg/ml
E. coli, ATTC 25922 = assay: Lawn-spotting antibacterial assay (E. coli); type: cell-based, Escherichia coli; conditions: 5 μl spotted, inactive segments up to 1 mg/ml
[3] = tested on: whole-cell NADPH oxidase activity of porcine peripheral blood neutrophils; assay: Whole-cell O2- production, ferricytochrome c reduction; type: cell-based; conditions: incubated 150 min. before PMA stimulation
Protocol: Regulation of neutrophil O2^− production by PR-26 and PR-39. • (i) O2^− production assays. Whole-cell O2^− production by por-cine peripheral blood neutrophils was determined by the superoxide dismutase-inhibitable reduction of ferricytochrome c as previously described (Shi et al., 1994a). Cell-free O2^− production was measured as previously described (Leto et al., 1991) using 96-well plates and a Molecular Devices Thermomax microplate reader (Menlo Park, Calif.). Reactions (100 μl) contained 10^6 cell equivalents of human neutrophil cytosol and 5×10^5 cell equivalents of deoxycholate-solubilized membranes prepared from human peripheral blood neutrophils. Reaction mixtures contained 50 mM potassium phosphate (pH 7), 0.2 mM acetylated cytochrome c, 4 mM MgCl2, 1 mM EGTA, 10 μM FAD, 1 μM GTP-γS, and 200 μM NADPH. The reactions were initiated by addition of 40 μM arachidonic acid. Control reactions contained 5 μg of superoxide dismutase. Superoxide anion generation was calculated based on superoxide dismutase-inhibitable changes in cytochrome c absorbance observed at 551 nm. The reactions were followed for 20 min. after addition of arachidonic acid, with absorbance readings taken at 1-min. intervals. Maximum rates of superoxide generation were calculated from a linear least squares fit of 10 consecutive 1-min. data points. Determinations were based on reactions performed in duplicate. • (ii) Binding assays. Neutrophils were disrupted by sonication, and unbroken cells, debris, and granules were removed by centrifuigation (13,000×g for 60 min.). Cytosol fractions were prepared by centrifugation (100,000 g for 45 min.) of the supernatants to remove residual membranes. Cytosolic proteins (15 μg in reducing buffer) were separated on a 7.5% SDS PAGE gel, transferred to PVDF membranes, and probed with biotinylated PR-39 (0.3 μM) for 2 hr. Binding between PR-39 and cytosolic proteins were visualized by a chemiluminescent streptavidin alkaline phosphatase system using an Epson scanner (Torrance, Calif.) and the NIH Image program. PR-39 was labeled with biotin hydrazide at the carboxy-terminus (Pierce Chemical Co., Rockford, Ill.) and purified by gel filtration chromatography.

porcine neutrophils = assay: Neutrophil chemotaxis, modified Boyden chamber; type: cell-based; conditions: peptide at 1 μM, 30 min
Protocol: Influence of PR-39 on neutrophil chemotaxis. Chemotaxis of porcine neutrophils was measured by the procedure of Salak et al. (1993). Briefly, PR-14, PR15, PR-16, PR-26, or PR-39 (30 μl in Dulbecco's Modified Eagle's medium) were placed in the bottom chamber of a modified Boyden chamber (Neuro Probe, Cabin John, Md.) and porcine neutrophils (50 μl at 5×10^6 cells/ml) were placed in the top chamber. The chambers were incubated at 37° C. for 30 min. Cells that migrated through the porous membrane (pore size 5 μm) were stained using LeukoStat solution and enumerated. Five microscope fields were counted and the cells that migrated through the membrane were standardized to the medium control and referred to as the migration index.

Staphylococcus aureus = assay: MIC/MBC microdilution broth method; type: cell-based
Protocol: (§1) Plates were incubated at 37° C. for 18 hr. […] Viable bacteria were counted. Tests were repeated on three different days. […] The results were expressed as the mean ± standard deviation. […] S. choleraesuis, ATCC 6962 was used in this experiment. […] Slides were stained with LeukoStat solutions (Fisher, Pittsburgh, Pa.). […] At least 200 neutrophils were examined. […] Tests were repeated on three different days. Results were expressed as the mean±standard deviation.

Escherichia coli, 25922 = assay: MIC/MBC microdilution broth method; type: cell-based
Protocol: as §1

Salmonella typhimurium = assay: MIC/MBC microdilution broth method; type: cell-based; conditions: murium
Protocol: as §1

Streptococcus suis = assay: MIC/MBC microdilution broth method; type: cell-based
Protocol: as §1

Salmonella choleraesuis = type: cell-based
Protocol: as §1

S. typhimurium = assay: Survival of mice after oral S. typhimurium challenge (first experiment); type: in vivo, A/J mice; conditions: 100 or 250 μg/mouse
Protocol: Effect of PR-26 on survival of mice challenged with S. typhimurium. Three separate S. typhimurium challenge studies were conducted with mice. In the first experiment, 45 A/J mice (Jackson Labs, Bar Harbor, Me.) were orally challenged with S. typhimurium. Feed was withdrawn 4 hrs. prior to an oral inoculation. Twenty min. prior to the inoculation with S. typhimurium mice were given a 30 μl dose of a 10% sodium bicarbonate solution in PBS. S. typhimurium, strain KSU007, was started in brain heart infusion broth overnight and then grown for 6 hrs. in Luria Broth Base (GIBCO, Gaithersburg, Md.). After centrifugation, bacteria were suspended in a 1% gelatin solution (final concentration 1.24×10^10 S. typhimurium/ml), and then 25 μl were given orally. Immediately following oral inoculation with S. typhimurium, mice were given 0, 100, or 250 μg of PR-26 in PBS. A second dose of PR-26 or PBS was given 4 hrs. later.

[4] = cell-free assay, read-out: IC50 of O2- generation

Protocol for Escherichia coli, K88: Briefly, 50 μl of twofold serial dilutions (128 to 0.25 μM) of synthetic peptides were dispensed into wells of 96-well tissue culture plates. Bacteria (E. coli, ATCC 25922; E. coli, K88; S. typhimurium, fresh isolate from a dog; Salmonella choleraesuis ATCC 6962; Streptococcus suis, fresh isolate from porcine spleen; and Staphylococcus aureus) from sheep-blood or brain-heart-infusion agar plates were standardized to 0.5 McFarland in demineralized water using a radiometer/sensititre (Chelsea Instrument Ltd., England). The water/bacteria suspension (100 μl) was immediately transferred to 10 ml of cation-adjusted Muller-Hinton broth and 50 μl of the bacterial suspension then were added to each well of the microtiter plate. Plates were incubated for 20 hr. at 37° C. and MICs were determined. Ten microliters of bacterial suspensions in Muller-Hinton broth also were diluted to determine the actual bacterial concentration using standard colony forming unit (CFU) counting. After determination of the MICs, 10 μl of each bacteria-peptide suspension were plated on sheep-blood or brain-heart-infusion agar plates and incubated for 24 hr. at 37° C. to determine the MBCs. MBC was considered that peptide concentration that inhibited 99.9% of the original CFUs (NCCLS, 1990). • (iv) PAE.

Compound	effect on O2- generation ([1]; cell-free assay)	antibacterial activity (clear zones on overlaid gel) (E. coli, ATCC 25922)	antibacterial activity (clear zone on bacterial lawn) [2]	antibacterial activity (clear zone on bacterial lawn) (E. coli, ATTC 25922)	O2- generation by intact neutrophils [3]	neutrophil chemotaxis (migration index) (porcine neutrophils)	IC50 [1, 4] [µM]	also measured
PR-16: central segment 11 to 26 of PR-39; Sequence ID No. 5 (RPRPPPFFPPRLPPRI)	did not affect	only PR-26 and PR-39 were found to have antibacterial activity	no antibacterial activity	no antibacterial activity	did not significantly reduce	chemotactic agents	–	–
PR-14: NH2-terminal segment 1 to 14 of PR-39; Sequence ID No. 7 (RRRPRPPYLPRPRP)	–	only PR-26 and PR-39 were found to have antibacterial activity	no antibacterial activity	no antibacterial activity	did not significantly reduce	chemotactic agents	–	concentrations at which O2- generation was reduced ([1]; cell-free assay): greater than 25 μM
CC(C)C[C@H](NC(=O)[C@H](Cc1ccc(O)cc1)NC(=O)[C@@H]1CCCN1C(=O)[C@@H]1CCCN1C(=O)[C@H](CCCNC(=N)N)NC(=O)[C@@H]1CCCN1C(=O)[C@H](CCCNC(=N)N)NC(=O)[C@H](CCCNC(=N)N)NC(=O)[C@@H](N)CCCNC(=N)N)C(=O)N1CCC[C@H]1C(=O)N[C@@H](CCCNC(=N)N)C(=O)N1CCC[C@H]1C(=O)N[C@@H](CCCNC(=N)N)C(=O)N1CCC[C@H]1C(=O)N1CCC[C@H]1C(=O)N1CCC[C@H]1C(=O)N[C@@H](Cc1ccccc1)C(=O)N[C@@H](Cc1ccccc1)C(=O)N1CCC[C@H]1C(=O)O [PR-19] (H-RRRPRPPYLPRPRPPPFFP-OH)	–	–	–	–	–	–	~5	–
CC[C@H](C)[C@H](NC(=O)[C@H](CCCNC(=N)N)NC(=O)[C@@H]1CCCN1C(=O)[C@@H]1CCCN1C(=O)[C@H](CC(C)C)NC(=O)[C@H](CCCNC(=N)N)NC(=O)[C@@H]1CCCN1C(=O)[C@@H]1CCCN1C(=O)[C@H](Cc1ccccc1)NC(=O)[C@H](Cc1ccccc1)NC(=O)[C@@H]1CCCN1C(=O)[C@@H]1CCCN1C(=O)[C@@H]1CCCN1C(=O)[C@H](CCCNC(=N)N)NC(=O)[C@@H]1CCCN1C(=O)[C@H](CCCNC(=N)N)NC(=O)[C@@H]1CCCN1C(=O)[C@H](CC(C)C)NC(=O)[C@H](Cc1ccc(O)cc1)NC(=O)[C@@H]1CCCN1C(=O)[C@@H]1CCCN1C(=O)[C@H](CCCNC(=N)N)NC(=O)[C@@H]1CCCN1)C(=O)O [PR-23] (H-PRPPYLPRPRPPPFFPPRLPPRI-OH)	–	–	–	–	–	–	~25	–
PR-15: COOH-terminal segment 25 to 39 of PR-39; Sequence ID No. 6 (RIPPGFPPRFPPRFP)	did not affect	only PR-26 and PR-39 were found to have antibacterial activity	no antibacterial activity	no antibacterial activity	did not significantly reduce	chemotactic agents	–	–
CC[C@H](C)[C@H](NC(=O)[C@H](CCCNC(=N)N)NC(=O)[C@@H]1CCCN1C(=O)[C@@H]1CCCN1C(=O)[C@H](CC(C)C)NC(=O)[C@H](CCCNC(=N)N)NC(=O)[C@@H]1CCCN1C(=O)[C@@H]1CCCN1C(=O)[C@H](Cc1ccccc1)NC(=O)[C@H](Cc1ccccc1)NC(=O)[C@@H]1CCCN1C(=O)[C@@H]1CCCN1C(=O)[C@@H]1CCCN1C(=O)[C@H](CCCNC(=N)N)NC(=O)[C@@H]1CCCN1C(=O)[C@H](CCCNC(=N)N)NC(=O)[C@@H]1CCCN1C(=O)[C@H](CC(C)C)NC(=O)[C@H](Cc1ccc(O)cc1)NC(=O)[C@@H]1CCCN1C(=O)[C@@H]1CCCN1C(=O)[C@H](CCCNC(=N)N)NC(=O)[C@@H]1CCCN1C(=O)[C@H](CCCNC(=N)N)NC(=O)[C@H](CCCNC(=N)N)NC(=O)[C@@H](N)CCCNC(=N)N)C(=O)O [PR-26] (H-RRRPRPPYLPRPRPPPFFPPRLPPRI-OH)	–	–	–	–	–	–	–	IC50 [1]: ~1 µM; MIC (Staphylococcus aureus): >250 µM; MBC (Escherichia coli, 25922): 8 µM (≈ 25.8 µg/mL); MIC (Escherichia coli, 25922): 2 µM (≈ 6.46 µg/mL); MBC (Salmonella typhimurium): 2 µM (≈ 6.46 µg/mL); MIC (Salmonella typhimurium): 2 µM (≈ 6.46 µg/mL); MBC (Streptococcus suis): >64 µM; MIC (Streptococcus suis): 16 µM (≈ 51.7 µg/mL); MBC (Salmonella choleraesuis): 2 µM (≈ 6.46 µg/mL); MIC (Salmonella choleraesuis): 1 µM (≈ 3.23 µg/mL); MBC (Escherichia coli, K88): 4 µM (≈ 12.9 µg/mL); MIC (Escherichia coli, K88): 1 µM (≈ 3.23 µg/mL); toxicity in mice (S. typhimurium): no evidence of toxicity
